“And” between values parts separate entries of the source, which are not always exact repeats. Identical values can stand only once. “Also recorded” adds a separate entry of the source. Like-named read-outs stand apart in the source and are kept apart here.
Columns and labels:
NMDA receptors = format: cell-based, rat
[1] = cited from earlier work
VSV in HEL cells = format: cell-based, vesicular stomatitis virus
[2] = test system: vesicular stomatitis virus (VSV) in HeLa cells; conditions: for EC50: read-out: EC50 (50% antiviral effective concentration) against VSV
[3] = test system: bloodstream form T. brucei (strain 427); format: cell-based, Trypanosoma brucei
[4] = test system: influenza A/Puerto Rico/8/34 (H1N1); test: Influenza virus assay, A/H1N1; format: cell-based; conditions: read-out: antiviral EC50 against influenza A/H1N1 subtype
[5] = read-out: IC50, Glutamate (100 μM)

“6,7,8,9,10,11-Hexahydro-9-methyl-5,7:9,11-dimethano-5H-benzocyclononen-7-amine hydrochloride [Compound 3]” gave an IC50 (NMDA receptors; [5]) of 22 ± 3.9 µM and an IC50 (NMDA receptors; read-out: IC50, NMDA (100 μM)) of 13.6 ± 3.4 µM.

“N-Methyl-6,7,8,9,10,11-hexahydro-9-methyl-5,7:9,11-dimethano-5H-benzocyclononen-7-amine hydrochloride [Compound 8]” showed an IC50 (NMDA receptors; [5]) of 455 ± 216 µM and an IC50 (NMDA receptors; read-out: IC50, NMDA (100 μM)) of 19.4 ± 3.3 µM.

For `c1ccc(CNC23OC4C5C6CC(C7C6C4C72)C53)cc1` (stereo not shown) [NGP1-01], the “stability in aqueous medium (in words)” value [1] is listed as “decomposes easily in aqueous medium”.

For “N,N-dipropargyl-6,7,8,9,10,11-hexahydro-9-methyl-5,7:9,11-dimethano-5H-benzocyclononen-7-amine hydrochloride [Compound 10]”, the “activity against VSV in HEL cells (in words)” value (VSV in HEL cells) was “not active”, the “selectivity index (ratio of cytotoxic to antiviral concentration)” value [2] was 25 and the EC50 [2] was 4 µM.

For “N-Benzyl-N-methyl-6,7,8,9,10,11-hexahydro-9-methyl-5,7:9,11-dimethano-5H-benzocyclononen-7-amine hydrochloride [Compound 7]”, the “NMDA receptor antagonist activity (in words)” value (NMDA receptors) was “devoid of activity”.

With “N,N-Dimethyl-6,7,8,9,10,11-hexahydro-9-methyl-5,7:9,11-dimethano-5H-benzocyclononen-7-amine hydrochloride [Compound 11]” the IC50 (NMDA receptors; [5]) was 87 ± 28 µM, the IC50 (NMDA receptors; read-out: IC50, NMDA (100 μM)) was 12 µM and 11.8 µM and the “inhibitory activity against cultured bloodstream form T. brucei (in words)” value ([3]; at 5 μg mL^−1 (15–20 μM)) was “little or no inhibitory activity”.

With “N-(6,7,8,9,10,11-hexahydro-9-methyl-5,7:9,11-dimethano-5H-benzocyclononen-7-yl)piperidine hydrochloride [Compound 12]” the IC50 (NMDA receptors; [5]) was over 500 µM, the “activity against VSV in HEL cells (in words)” value (VSV in HEL cells) was “not active” and the EC50 [2] was 54 µM.

For “N-Propargyl-6,7,8,9,10,11-hexahydro-9-methyl-5,7:9,11-dimethano-5H-benzocyclononen-7-amine hydrochloride [Compound 9]”, the IC50 (NMDA receptors; [5]) was over 500 µM, the IC50 (NMDA receptors; read-out: IC50, NMDA (100 μM)) was 27.5 ± 13.2 µM and the “IC90 lower than that of rimantadine (fold)” value ([3]; versus rimantadine) was “more than 4 times”.

For “N-Benzyl-6,7,8,9,10,11-hexahydro-9-methyl-5,7:9,11-dimethano-5H-benzocyclononen-7-amine hydrochloride [Compound 6]”, the “NMDA receptor antagonist activity (in words)” value (NMDA receptors) was “devoid of activity; also recorded: not active as NMDA receptor antagonist”, the IC50 ([3]; read-out: IC50 against cultured bloodstream form T. brucei) was 3 ± 0.32 µM and the IC90 ([3]; read-out: IC90 against cultured bloodstream form T. brucei) was 6.55 ± 0.32 µM. The EC50 [4] was 10 µM.

— paper PMC3353318 (Bioorganic & Medicinal Chemistry, 2011)
